# Like-named read-outs stand apart in the source and are kept apart here.
# Assays:
# Type in all cases: in vivo
# Sagittaria trifolia = assay: Field transplant rice test, applied 0 DAT, ST; conditions: 0 h, read-out: Percent Inhibition, ST; for inhibition at 375 g/ha: 0.375 Kg/Ha; for inhibition at 750 g/ha: 0.75 Kg/Ha; for inhibition at 1500 g/ha: 1.5 Kg/Ha; for inhibition at 3000 g/ha: 3.0 Kg/Ha
# Experimental: (§1) The test data in Table III for all compounds was obtained under identical test conditions. The weeds used in the tests herein have the following abbreviations in the tables: Echinochloa crus-galli (EC), Monochloria vaginalis (MV), Cyperus Serotinus (CS), Eleocharis Kuroguwai (EK) and Sagittaria trifolia (ST).
# (§2) In further comparative tests, a preferred compound of this invention (Example 1) was tested in the field with prior art Compounds A-D. These tests were conducted under conditions reflecting herbicide application times generally favorable to all herbicides in the test. The timing of application of herbicides to transplant rice is very important, whether, as in some instances, prior to transplanting the rice; in other instances, at the time of transplanting or else after transplanting. Application times are conventionally referred to as "days before transplant" (DBT) or "days after transplant" ("DAT"). The field test data in Table IV was obtained from a test in which the herbicides were applied at the time of transplant, i.e., "0 DAT", with observations being made weekly up to six weeks after transplant ("WAT") beginning at two weeks after transplant; for illustrative and representative purposes, only the early, middle and late period observations, i.e., 2 WAT, 4 WAT and 6 WAT, are shown in Table IV. The data in Table IV is for rates of application common to all herbicides in the test, i.e., from 3.0 kg/ha (2.67 lb/A) down to 0.375 kg/ha (0.34 lb/A). All herbicides were applied at their actual or expected use rates, i.e., as granules containing 2.5% by weight herbicide for the compound of Example 1, Compounds B, C and D and 5.0% by weight for Compound A.
# Echinochloa crus-galli [1] = assay: Field transplant rice test, applied 0 DAT, EC; conditions: 0 h, read-out: Percent Inhibition, EC; for inhibition at 375 g/ha: 0.375 Kg/Ha; for inhibition at 750 g/ha: 0.75 Kg/Ha; for inhibition at 1500 g/ha: 1.5 Kg/Ha; for inhibition at 3000 g/ha: 3.0 Kg/Ha
# Experimental: as §1, §2
# Cyperus serotinus [2] = assay: Greenhouse transplant rice test, CS; conditions: about 3 WAT, read-out: Percent Inhibition, CS
# Excerpt: (§3) The test procedure used in this greenhouse test is as follows: Ray silt loam top soil containing about 0.05% by weight of krillium and sifted through a […] screen is fumigated about 5-10 days prior to use. Pots are then filled with said Ray silt loam soil to a level to allow for a 1 in. (2.54 cm) flooding depth. Rice plants (Bluebelle) of 2 to 3 weeks age are transplanted to the pots and bulbs or seeds of the test weeds also planted in the pots. The pots are then flooded and the test chemical applied to the surface of the flood water. The flood water is reduced to allow for germination of the Echinochloa crus-galli (barnyardgrass) seed and subsequently reflooded and maintained in that condition. Observations of percent inhibition using a scale of 0-100% are made about 3 weeks after transplant (WAT).
# as §1
# Rice = assay: Field transplant rice test, applied 0 DAT, rice injury; conditions: Oryza sativa, 0 h, read-out: Percent Inhibition, Rice; for inhibition at 375 g/ha: 0.375 Kg/Ha; for inhibition at 750 g/ha: 0.75 Kg/Ha; for inhibition at 1500 g/ha: 1.5 Kg/Ha; for inhibition at 3000 g/ha: 3.0 Kg/Ha
# Experimental: as §2
# Eleocharis kuroguwai = assay: Field transplant rice test, applied 9 DAT, EK; conditions: for inhibition at 375 g/ha / inhibition at 750 g/ha / inhibition at 1500 g/ha / inhibition at 3000 g/ha: Eleocharis kuroguwai, 216 h, read-out: Percent Inhibition, EK; for inhibition at 375 g/ha: 0.375 Kg/Ha; for inhibition at 750 g/ha: 0.75 Kg/Ha; for inhibition at 1500 g/ha: 1.5 Kg/Ha; for inhibition at 3000 g/ha: 3.0 Kg/Ha
# Excerpt: In the discussion of data below, occasional reference is made to herbicide application rates symbolized as "GR15 " and "GR85 "; these rates are given in kilograms per hectare (kg/ha) which are convertible into pounds per acre (lbs/A) by dividing the kg/ha rate by 1.12.
# A further guide to the effectiveness of a chemical as a selective herbicide is the "selectivity factor" ("SF") for a herbicide in given crops and weeds. The selectivity factor is a measure of the relative degree of crop safety and weed injury and is expressed in terms of the GR15 /GR85 ratio, i.e., the GR15 rate for the crop divided by the GR85 rate for the weed, both rates in kg/ha (lb/A.)
# as §1, §2
# In Table V are presented field data showing the relative performance of the compound of Example 1 and Compounds A-D applied 9 DAT, with observations being made weekly from 3 WAT to 7 WAT; again, for illustrative and representative purposes, only the early, middle and late period observations are reported in Table V, the herbicide rates and concentrations of active ingredients the same as is shown in Table IV.
# Cyperus serotinus [3] = assay: Field transplant rice test, applied 0 DAT, CS; conditions: 0 h, read-out: Percent Inhibition, CS; for inhibition at 375 g/ha: 0.375 Kg/Ha; for inhibition at 750 g/ha: 0.75 Kg/Ha; for inhibition at 1500 g/ha: 1.5 Kg/Ha; for inhibition at 3000 g/ha: 3.0 Kg/Ha
# Experimental: as §1, §2
# Echinochloa crus-galli [4] = assay: Greenhouse transplant rice test, EC; conditions: about 3 WAT, read-out: Percent Inhibition, EC
# Excerpt: as §3, §1
structure (smiles),measurement,setting,value
"CCCCOCN(C(=O)CCl)c1c(CC)cccc1CC [Compound A, 2',6'-diethyl-N-(n-butoxymethyl)-2-chloroacetanilide]",inhibition at 375 g/ha,Sagittaria trifolia; 2 WAT,37%
same,inhibition at 375 g/ha,Sagittaria trifolia; 4 WAT,22%
same,inhibition at 375 g/ha,Sagittaria trifolia; 6 WAT,7%
same,inhibition at 750 g/ha,Sagittaria trifolia; 2 WAT,52%
same,inhibition at 750 g/ha,Sagittaria trifolia; 4 WAT,20%
same,inhibition at 750 g/ha,Sagittaria trifolia; 6 WAT,15%
same,inhibition at 1500 g/ha,Sagittaria trifolia; 2 WAT,60%
same,inhibition at 1500 g/ha,Sagittaria trifolia; 4 WAT,33%
same,inhibition at 1500 g/ha,Sagittaria trifolia; 6 WAT,20%
same,inhibition at 3000 g/ha,Sagittaria trifolia; 2 WAT,42%
same,inhibition at 3000 g/ha,Sagittaria trifolia; 4 WAT,33%
same,inhibition at 3000 g/ha,Sagittaria trifolia; 6 WAT,12%
same,inhibition at 375 g/ha,Echinochloa crus-galli [1]; 2 WAT,60%
same,inhibition at 375 g/ha,Echinochloa crus-galli [1]; 4 WAT,72%
same,inhibition at 375 g/ha,Echinochloa crus-galli [1]; 6 WAT,60%
same,inhibition at 750 g/ha,Echinochloa crus-galli [1]; 2 WAT,90%
same,inhibition at 750 g/ha,Echinochloa crus-galli [1]; 4 WAT,100%
same,inhibition at 750 g/ha,Echinochloa crus-galli [1]; 6 WAT,100%
same,inhibition at 1500 g/ha,Echinochloa crus-galli [1]; 2 WAT,95%
same,inhibition at 1500 g/ha,Echinochloa crus-galli [1]; 4 WAT,100%
same,inhibition at 1500 g/ha,Echinochloa crus-galli [1]; 6 WAT,97%
same,inhibition at 3000 g/ha,Echinochloa crus-galli [1]; 2 WAT,98%
same,inhibition at 3000 g/ha,Echinochloa crus-galli [1]; 4 WAT,100%
same,inhibition at 3000 g/ha,Echinochloa crus-galli [1]; 6 WAT,100%
same,inhibition at 280 g/ha,Cyperus serotinus [2]; 0.28 Kg/Ha,100%
same,inhibition at 560 g/ha,Cyperus serotinus [2]; 0.56 Kg/Ha,85%
same,inhibition at 1120 g/ha,Cyperus serotinus [2]; 1.12 Kg/Ha,90%
same,inhibition at 2240 g/ha,Cyperus serotinus [2]; 2.24 Kg/Ha,100%
same,inhibition at 375 g/ha,Rice; 2 WAT,8%
same,inhibition at 375 g/ha,Rice; 4 WAT,10%
same,inhibition at 375 g/ha,Rice; 6 WAT,7%
same,inhibition at 750 g/ha,Rice; 2 WAT,2%
same,inhibition at 750 g/ha,Rice; 4 WAT,0%
same,inhibition at 750 g/ha,Rice; 6 WAT,0%
same,inhibition at 1500 g/ha,Rice; 2 WAT,8%
same,inhibition at 1500 g/ha,Rice; 4 WAT,23%
same,inhibition at 1500 g/ha,Rice; 6 WAT,5%
same,inhibition at 3000 g/ha,Rice; 2 WAT,10%
same,inhibition at 3000 g/ha,Rice; 4 WAT,2%
same,inhibition at 3000 g/ha,Rice; 6 WAT,3%
same,"selectivity factor (GR15/GR85), EK in transplant rice",Eleocharis kuroguwai; 3 WAT,non-selective
same,inhibition at 375 g/ha,Eleocharis kuroguwai; 3 WAT,40%
same,inhibition at 375 g/ha,Eleocharis kuroguwai; 5 WAT,22%
same,inhibition at 375 g/ha,Eleocharis kuroguwai; 7 WAT,3%
same,inhibition at 750 g/ha,Eleocharis kuroguwai; 3 WAT,37%
same,inhibition at 750 g/ha,Eleocharis kuroguwai; 5 WAT,12%
same,inhibition at 750 g/ha,Eleocharis kuroguwai; 7 WAT,3%
same,inhibition at 1500 g/ha,Eleocharis kuroguwai; 3 WAT,55%
same,inhibition at 1500 g/ha,Eleocharis kuroguwai; 5 WAT,25%
same,inhibition at 1500 g/ha,Eleocharis kuroguwai; 7 WAT,0%
same,inhibition at 3000 g/ha,Eleocharis kuroguwai; 3 WAT,68%
same,inhibition at 3000 g/ha,Eleocharis kuroguwai; 5 WAT,40%
same,inhibition at 3000 g/ha,Eleocharis kuroguwai; 7 WAT,0%
same,inhibition at 375 g/ha,Cyperus serotinus [3]; 2 WAT,67%
same,inhibition at 375 g/ha,Cyperus serotinus [3]; 4 WAT,67%
same,inhibition at 375 g/ha,Cyperus serotinus [3]; 6 WAT,63%
same,inhibition at 750 g/ha,Cyperus serotinus [3]; 2 WAT,95%
same,inhibition at 750 g/ha,Cyperus serotinus [3]; 4 WAT,93%
same,inhibition at 750 g/ha,Cyperus serotinus [3]; 6 WAT,93%
same,inhibition at 1500 g/ha,Cyperus serotinus [3]; 2 WAT,90%
same,inhibition at 1500 g/ha,Cyperus serotinus [3]; 4 WAT,82%
same,inhibition at 1500 g/ha,Cyperus serotinus [3]; 6 WAT,77%
same,inhibition at 3000 g/ha,Cyperus serotinus [3]; 2 WAT,73%
same,inhibition at 3000 g/ha,Cyperus serotinus [3]; 4 WAT,68%
same,inhibition at 3000 g/ha,Cyperus serotinus [3]; 6 WAT,50%
same,inhibition at 280 g/ha,Echinochloa crus-galli [4]; 0.28 Kg/Ha,96%
same,inhibition at 560 g/ha,Echinochloa crus-galli [4]; 0.56 Kg/Ha,100%
same,inhibition at 1120 g/ha,Echinochloa crus-galli [4]; 1.12 Kg/Ha,100%
same,inhibition at 2240 g/ha,Echinochloa crus-galli [4]; 2.24 Kg/Ha,100%

# Source: patent US4345938A, “Herbicidal 2-haloacetanilides” (Monsanto Company, priority 1980, dated 1982)
